The results in this text go back to patent US11572590B2, “Methods for evaluating tumor cell spheroids using 3D microfluidic cell culture device” (Dana-Farber Cancer Institute, Inc., priority 2017, dated 2023).

Each structure is given as a SMILES string.

For experiment [1], the system named is CT26 spheroids (lacking immune cells). Nature of the experiment: Bead-based cytokine profiling of CT26 spheroids lacking immune cells. Format: cell-based, murine. Conditions: Day 1, 3, and 6. The protocol:
Fresh tumor specimens (murine and human patients) were received in media (DMEM) on ice and minced in a 10 cm dish (on ice) using sterile forceps and scalpel. Minced tumor was resuspended in DMEM ([…], […] sodium pyruvate, 1:100 penicillin-streptomycin) (Corning CellGro, Manassas, Va.) +10% FBS (Gemini Bio-Products, West Sacramento, Calif.), 100 U/mL collagenase type IV (Life Technologies, Carlsbad, Calif.), and 15 mM HEPES (Life Technologies, Carlsbad, Calif.), except for CT26 tumors that were prepared in RPMI. Samples were pelleted and resuspended in 10-20 mL media. Red blood cells were removed from visibly bloody samples using RBC Lysis Buffer (Boston Bio-Products, Ashland, Mass.). […]
Two multiplex assays were performed utilizing a bead-based immunoassay approach, the Bio-Plex Pro™ Human Cytokine 40-plex Assay (Cat #171AK99MR2) and Bio-Plex Pro™ Mouse Cytokine Panel 1, 23-plex (Cat #M60009RDPD) on a Bio-plex 200 system (Cat #171000201). […] Fold changes relative to the MDOT/PDOT control were calculated and plotted as log 2FC. Lower and upper limits of quantitation (LLOQ/ULOQ) were imputed from standard curves for cytokines above or below detection. […]

The next experiment concerns the target off-target kinases (Homo sapiens, UniProt P36888). Nature of the experiment: SelectScreen Kinase Profiling, single point inhibition and IC50 for off-target kinases. It counts as biochemical. Set-up: other: FLT3 ITD; 1000 μM. The following applies: FLT3 ITD; 1000 μM; LanthaScreen Binding. The protocol: Biochemical single point inhibition and IC50 concentrations for TBK1, IKKε (IKBKE), and off-target kinases were determined at ThermoFisher Scientific using SelectScreen Kinase Profiling Services (Madison, Wis., USA) (Tables S4A and S4B-1-7). To determine cellular potency, the human colorectal cancer carcinoma cell line HCT116 (ATCC, Manassas, Va.) was maintained in T175 flasks in complete RPMI medium; RPMI 1640 supplemented with 10% FBS, 1× Penicillin-Streptomycin solution and 1×MEM (non-essential amino acids). HCT116 cells were grown to 90-95% confluency in T175 flasks containing complete RPMI medium and transfected in bulk using Lipofectamine 2000 (Invitrogen, Carlsbad, Calif.) with 70 μg of ISG54-luciferase reporter plasmid (Elim Biopharmaceuticals Inc., Hayward, Calif.). The reporter plasmid contains a luciferase gene expression cassette under the transcriptional regulation of the promoter of the human interferon stimulated gene 54 (ISG54). Transfection of the cells was allowed to take place for 6 hours, after which the cells were harvested by treatment with 0.25% trypsin EDTA (Corning Inc., Corning, N.Y.). Trypsinized cells were added to 384-well poly-d-lysine treated black clear bottom tissue culture assay plates (Greiner Bio-One GmbH, Kremsmünster, Austria) at a density of 20,000 cells/well in 80 μL of complete RPMI medium and incubated overnight. After 16-18 hours post-transfection, the assay plates were washed with PBS (Corning Inc., Corning, N.Y.), followed by addition of 80 μL/well of serum-free RPMI 1640 medium containing 1× Penicillin-Streptomycin solution, 1×MEM and 350 nL of DMSO or titrations of Compound 1. […] The assay plates were incubated for 5 hours at 37° C., followed by addition of One-Glo luciferase firefly reagent (Promega, Madison, Wis.) at 1:1 volume/well and luminescence was measured in an EnVision Multilabel Plate Reader (PerkinElmer, Santa Clara, Calif.). The EC50 values were calculated from the fit of the dose-response curves to a four-parameter equation. […]
On the technique in general: In TR-FRET formats the signal depends on donor and acceptor labels being close together.

With `N#Cc1cc(-c2ncnc(Nc3ccc(N4CCN(C5COC5)CC4)cc3)n2)ccc1OC1CCOCC1` [Compound 1, 5-(4-((4-(4-(oxetan-3-yl)piperazin-1-yl)phenyl)amino)-1,3,5-triazin-2-yl)-2-((tetrahydro-2H-pyran-4-yl)oxy)benzonitrile], the “immune suppressive cytokine elaboration by CT26 cell line spheroids” value in experiment [1] is on record as “effectively blocked”. Moreover, at off-target kinases, the “% Inhibition 1” value is 64%, the “% Inhibition 2” value came to 62% and the “% Inhibition Avg” value was 63%.
